Reference: patent publication US12600705B2, “Heat shock protein modulators and anti-Huntington disease therapeutic agents” (UNIVERSITY OF PITTSBURGH-OF THE COMMONWEALTH SYSTEM OF …, priority 2020, dated 2026)

Key:
[1] = tested on: HEK293 cells that express an HTT exon containing 17 glutamine repeats (HTT17Q-mCherry); assay: Huntington's Disease (HD) model: protein aggregates (puncta) per cell in HEK293H cells transfected with HTT17Q-mCherry; details: 6 h; for Effectiveness compared to MAL1-271 (Less/Similar/More) / Effectiveness compared to the MAL1-271 positive control: 10 μM; for Effectiveness compared to MAL1-271 (Less/Similar/More): blunting formation of toxic aggregates; for Effect on aggregate suppression compared to the MAL1-271 positive control: Example 1, FIG. 2, 10 μM compound; for Effectiveness compared to the MAL1-271 positive control: Example 2
Protocol: Cells were stained for confocal microscope imaging with 4′,6-diamidino-2-phenylindole (DAPI), a fluorescent dye with high affinity to adenine-thymine rich DNA regions. A bright spot detection tool was used to identify and quantify the number of protein aggregates (“dots”) per cell.
Biological Assays: For HD assays, HEK293H cells were grown in DMEM (Sigma-Aldrich, Saint Louis, MO) supplemented with 10% fetal bovine serum (GE Healthcare Hyclone) and 1% penicillin/streptomycin (Thermo Fisher Scientific, Waltham, MA) at 37° C. and at a 5% CO2 atmosphere. Cells were seeded at 250,000 cells/plate in Poly-D-Lysine Coated 35 mm MatTek dishes (P35GC-1.5-10-C, MatTek Corporation, Ashland, MA). After 24 h growth, a total of 4 μg of mCherry tagged-polyglutamine-expanded (17-polyQ-expanded) huntingtin (HTT) was introduced using Lipofectamine 2000 (Invitrogen, Thermo Fisher Scientific) according to the manufacturer's instructions. […] The following day, cells were treated with vehicle (DMSO) as control or with 10 μM of the examined compounds for 6 h. The cells were then washed with PBS and fixed in 4% formaldehyde for 15 min at room temperature. Finally, cells were stained with DAPI (1:250 in PBS) for 4 h and maintained in PBS for confocal microscope imaging.
Complete volumes of cells were acquired at 0.5-μm steps, and volumes were reconstructed and analyzed using Nikon's NIS-Elements software (Nikon Instrument, Melville, NY). Bright spot detection tool was used to identify and quantify the number of protein aggregates (“dots”) per cell. A non-parametric Kruskal-Wallis test analysis was performed using Prism software (GraphPad, La Jolla, CA). Statistically significant differences between control (DMSO) and compound treated samples are indicated by asterisks in figure. To obtain representative images from this experiment, maximum intensity projections of 0.5-μm steps though the entire cell were generated using Nikon's NIS-Elements software.
Cells were stained for confocal microscope imaging with 4′,6-diamidino-2-phenylindole (DAPI) and bright spot detection tool was used to identify and quantify the number of protein aggregates (“dots”) per cell.

HDAC 1-3 = HDAC 1-3 assay (BioVision kit, HeLa nuclear extract); details: for Percent inhibition HDAC 1-3: Compound tested at 1 uM
Protocol: For HDAC 1-3 assays, kits from BioVision Incorporated (https://www.biovision.com/) were used and their recommended protocols followed. […] Each compound was dissolved in DMSO to generate a 100 μM stock solution, then diluted using HPLC-grade water to prepare 10 μM, 2 μM, and 1 μM solutions. These solutions were used for the assays. […] Assays utilized a BioTek Synergy H1 microplate reader and black Nunc MicroWell 96-well optical-bottom plates with polymer base.
HDAC 1-3: 10 μL of each diluted compound (10 μM) and 40 μL of HPLC-grade water were mixed and added into a well on the plate. […] Then, 50 μL of the reaction mixture was added to each well and the solution was mixed thoroughly. The reaction mixture consisted of 500 μL of 10×HDAC Assay buffer, 100 μL of HeLa nuclear extract, 250 μL of HDAC substrate, and 1.65 mL of HPLC-grade water. The plate was then warmed in an incubator at 37° C. with a rocker platform and was incubated for 30 min. After the incubation, 10 μL of Lysine Developer solution was added to each well. The plate was kept in the incubator for an additional 30 min. Afterwards, the plate was analyzed using a BioTek Synergy H1 microplate reader, taking two independent readings per well that were subsequently averaged.

HDAC 6 = target: T1, HDAC 6 (Homo sapiens, UniProt Q9UBN7); assay: HDAC 6 assay (BPS Bioscience kit); details: read-out: Percent Inhibition
T1 sequence (Q9UBN7 1-1215): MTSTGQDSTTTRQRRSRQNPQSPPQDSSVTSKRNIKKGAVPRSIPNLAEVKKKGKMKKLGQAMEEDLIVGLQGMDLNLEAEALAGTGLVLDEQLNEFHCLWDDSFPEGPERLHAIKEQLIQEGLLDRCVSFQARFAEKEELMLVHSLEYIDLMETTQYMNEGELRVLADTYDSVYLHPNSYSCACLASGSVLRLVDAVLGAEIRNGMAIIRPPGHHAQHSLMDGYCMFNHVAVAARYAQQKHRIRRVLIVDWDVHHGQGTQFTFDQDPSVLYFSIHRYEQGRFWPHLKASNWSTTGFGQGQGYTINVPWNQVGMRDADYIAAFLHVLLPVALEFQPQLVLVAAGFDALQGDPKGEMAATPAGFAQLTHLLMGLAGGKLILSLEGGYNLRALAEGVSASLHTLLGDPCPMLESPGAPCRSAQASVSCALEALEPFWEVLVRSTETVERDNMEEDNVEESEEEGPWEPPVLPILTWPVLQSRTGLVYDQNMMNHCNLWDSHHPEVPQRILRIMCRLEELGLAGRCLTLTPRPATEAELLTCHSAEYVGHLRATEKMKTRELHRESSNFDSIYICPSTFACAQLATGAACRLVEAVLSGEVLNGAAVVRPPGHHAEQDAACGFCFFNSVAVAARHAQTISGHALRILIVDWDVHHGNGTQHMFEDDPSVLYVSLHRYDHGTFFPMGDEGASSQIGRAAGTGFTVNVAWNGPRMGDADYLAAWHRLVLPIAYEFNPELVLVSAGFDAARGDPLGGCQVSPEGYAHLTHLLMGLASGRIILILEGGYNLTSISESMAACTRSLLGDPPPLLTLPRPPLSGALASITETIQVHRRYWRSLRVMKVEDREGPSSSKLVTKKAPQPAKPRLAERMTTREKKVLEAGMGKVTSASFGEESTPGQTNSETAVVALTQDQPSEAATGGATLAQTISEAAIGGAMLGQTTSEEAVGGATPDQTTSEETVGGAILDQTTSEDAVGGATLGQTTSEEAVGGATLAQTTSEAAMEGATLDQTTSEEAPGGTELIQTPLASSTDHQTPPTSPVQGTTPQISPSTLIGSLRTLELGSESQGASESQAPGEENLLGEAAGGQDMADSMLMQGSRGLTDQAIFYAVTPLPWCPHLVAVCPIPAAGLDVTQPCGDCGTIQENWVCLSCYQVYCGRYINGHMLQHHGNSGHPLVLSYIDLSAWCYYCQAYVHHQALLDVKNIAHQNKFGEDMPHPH
Protocol: (§1) For HDAC 4-8 assays, kits from BPS Bioscience (https://bpsbioscience.com/) were used and their recommended protocols followed. […] Each compound was dissolved in DMSO to generate a 100 μM stock solution, then diluted using HPLC-grade water to prepare 10 μM, 2 μM, and 1 μM solutions. These solutions were used for the assays. […] Assays utilized a BioTek Synergy H1 microplate reader and black Nunc MicroWell 96-well optical-bottom plates with polymer base.
(§2) HDAC 4 (and, by analogy, HDAC 5, 6, 7, and 8): 40 μL of the parent solution was added to each well on the plate. The parent solution was prepared from a fluorogenic HDAC substrate, a 1 mg/mL solution of bovine serum albumin (BSA) in water, and HDAC assay buffer. 5 μL of the inhibitor buffer (10% DMSO in water) was added to the wells designated as “Blank” and “Positive Control” (no inhibitor). 5 μL of the test compound was added to each well designated as “Test Inhibitor”. Different concentrations of TSA (for a standard curve) was added to each well designated as “Standard.” 5 μL of HDAC assay buffer was added to the “Blank” wells. Then, 5 μL of HDAC 4 human recombinant enzyme was added to the wells designated as “Positive Control”, “Test Inhibitor”, and “Standard.” The plate was then warmed in an incubator at 37° C. with a rocker platform for 30 min After the incubation, 50 μL of 2×HDAC Developer solution was added to each well. The plate was returned to the incubator and was shaken on the rocker for an additional 15 min. at room temperature. Afterwards, the plate was analyzed using a BioTek Synergy H1 microplate reader, taking two independent readings per well that were subsequently averaged.

HDAC 8 = target: T2, HDAC 8 (Homo sapiens, UniProt Q9BY41); assay: HDAC 8 assay (BPS Bioscience kit); details: read-out: Percent Inhibition
T2 sequence (Q9BY41 1-377): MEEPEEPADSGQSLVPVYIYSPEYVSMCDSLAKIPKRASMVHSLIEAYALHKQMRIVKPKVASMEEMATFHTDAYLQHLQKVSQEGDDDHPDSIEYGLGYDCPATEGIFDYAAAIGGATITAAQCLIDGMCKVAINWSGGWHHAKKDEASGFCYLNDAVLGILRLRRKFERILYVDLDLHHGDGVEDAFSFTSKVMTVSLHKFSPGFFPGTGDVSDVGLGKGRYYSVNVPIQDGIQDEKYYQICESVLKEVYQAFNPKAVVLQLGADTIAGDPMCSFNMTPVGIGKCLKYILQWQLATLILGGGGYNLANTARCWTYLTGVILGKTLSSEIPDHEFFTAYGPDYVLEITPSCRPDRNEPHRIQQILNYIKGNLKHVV
Protocol: as §1, §2

Q: `CCOC(=O)C1=CN(Cc2ccc(C(=O)NO)cc2)S(=O)(=O)N(C)C1c1ccc(Cl)cc1Cl` (single isomer, unassigned; (+)) [(+)-951_66, (+)-Ethyl 3-(2,4-dichlorophenyl)-6-(4-(hydroxycarbamoyl)benzyl)-2-methyl-3,6-dihydro-2H-1,2,6-thiadiazine-4-carboxylate 1,1-dioxide] was tested. Which “Effectiveness compared to MAL1-271 (Less/Similar/More)” value [1] did it give?
A: Less

Q: With `CCOC(=O)C1=CN(Cc2ccc(C(=O)NO)cc2)S(=O)(=O)N(C)C1c1ccc(Cl)cc1Cl` (single isomer, unassigned; (-)) [(−)-951_67, (−)-Ethyl 3-(2,4-dichlorophenyl)-6-(4-(hydroxycarbamoyl)benzyl)-2-methyl-3,6-dihydro-2H-1,2,6-thiadiazine-4-carboxylate 1,1-dioxide] as the compound, how does the “Effectiveness compared to MAL1-271 (Less/Similar/More)” value [1] read?
A: Similar

Q: With `CCOC(=O)C1=CN(CCCC(=O)OC)S(=O)(=O)NC1c1ccc(Cl)cc1Cl` (stereo not drawn) [Compound 5g, Ethyl 3-(2,4-dichlorophenyl)-6-(4-methoxy-4-oxobutyl)-3,6-dihydro-2H-1,2,6-thiadiazine-4-carboxylate 1,1-dioxide] as the compound, how does the “Effect on aggregate suppression compared to the MAL1-271 positive control” value [1] read?
A: less effective

Q: `CCOC(=O)C1=CN(Cc2ccc(CO)cc2)S(=O)(=O)NC1c1ccc(Cl)cc1Cl` (stereo not drawn) [Compound 5h, Ethyl 3-(2,4-dichlorophenyl)-6-(4-(hydroxymethyl)benzyl)-3,6-dihydro-2H-1,2,6-thiadiazine-4-carboxylate 1,1-dioxide] was tested. Which “Effect on aggregate suppression compared to the MAL1-271 positive control” value [1] did it give?
A: less effective

Q: `CCOC(=O)C1=CN(C(=O)OC(C)(C)C)S(=O)(=O)N(Cc2ccc(C(=O)OC(C)(C)C)cc2)C1c1ccc(Cl)cc1Cl` (stereo not drawn) [Compound 6i, 2-(tert-Butyl) 4-ethyl 6-(4-(tert-butoxycarbonyl)benzyl)-5-(2,4-dichlorophenyl)-5,6-dihydro-2H-1,2,6-thiadiazine-2,4-dicarboxylate 1,1-dioxide] was tested. Which “Effect on aggregate suppression compared to the MAL1-271 positive control” value [1] did it give?
A: less effective

Q: For `CCOC(=O)C1=CN(Cc2ccc(C(=O)O)cc2)S(=O)(=O)NC1c1ccc(Cl)cc1Cl` (stereo not drawn) [Compound 7h, 4-((5-(2,4-Dichlorophenyl)-4-(ethoxycarbonyl)-1,1-dioxido-5,6-dihydro-2H-1,2,6-thiadiazin-2-yl)methyl)benzoic acid], which “Effect on aggregate suppression compared to the MAL1-271 positive control” value [1] is on record?
A: less effective

Q: For `O=C(O)CCCN1C=C(C(=O)O)C(c2ccc(Cl)cc2Cl)NS1(=O)=O` (stereo not drawn) [Compound 9g, 6-(3-Carboxypropyl)-3-(2,4-dichlorophenyl)-3,6-dihydro-2H-1,2,6-thiadiazine-4-carboxylic acid 1,1-dioxide], which “Effect on aggregate suppression compared to the MAL1-271 positive control” value [1] is on record?
A: less effective

Q: Which “Percent inhibition HDAC 1-3” value (HDAC 1-3) does the source give for `CCOC(=O)C1=CN(CCCC(=O)NO)S(=O)(=O)NC1c1ccc(Cl)cc1Cl` (stereo not drawn) [Compound 12g, Ethyl 3-(2,4-dichlorophenyl)-6-(4-(hydroxyamino)-4-oxobutyl)-3,6-dihydro-2H-1,2,6-thiadiazine-4-carboxylate 1,1-dioxide] here?
A: 1%

Q: For `CCOC(=O)C1=CN(Cc2ccc(C(=O)NO)cc2)S(=O)(=O)NC1c1ccc(Cl)cc1Cl` (stereo not drawn) [Compound 12h, Ethyl 3-(2,4-dichlorophenyl)-6-(4-(hydroxycarbamoyl)benzyl)-3,6-dihydro-2H-1,2,6-thiadiazine-4-carboxylate 1,1-dioxide], which “Percent inhibition HDAC 1-3” value (HDAC 1-3) is on record?
A: 22%

Q: How did the “Effect on aggregate suppression compared to the MAL1-271 positive control” value [1] turn out when `COC(=O)CCCN1C=C(C(=O)OCc2ccccc2)C(c2ccc(Cl)cc2Cl)NS1(=O)=O` (stereo not drawn) [Compound 18g, Benzyl 3-(2,4-dichlorophenyl)-6-(4-methoxy-4-oxobutyl)-3,6-dihydro-2H-1,2,6-thiadiazine-4-carboxylate 1,1-dioxide] was run?
A: less effective

Q: For `CCOC(=O)C1=CN(Cc2ccc(C(=O)NO)cc2)S(=O)(=O)N(C)C1c1ccc(Cl)cc1Cl` (stereo not drawn) [Compound 930_62, Ethyl 3-(2,4-dichlorophenyl)-6-(4-(hydroxycarbamoyl)benzyl)-2-methyl-3,6-dihydro-2H-1,2,6-thiadiazine-4-carboxylate 1,1-dioxide], which “Effectiveness compared to MAL1-271 (Less/Similar/More)” value [1] is on record?
A: More

Q: And the “Effectiveness compared to the MAL1-271 positive control” value [1]?
A: more effective

Q: What does the source list for `CCOC(=O)C1=CN(Cc2ccc(C(=O)NO)cc2)S(=O)(=O)N(CC2CC2)C1c1ccc(Cl)cc1Cl` (stereo not drawn) [Compound 930_63, Ethyl 2-(cyclopropylmethyl)-3-(2,4-dichlorophenyl)-6-(4-(hydroxycarbamoyl)benzyl)-3,6-dihydro-2H-1,2,6-thiadiazine-4-carboxylate 1,1-dioxide]?
A: Effectiveness compared to MAL1-271 (Less/Similar/More) [1]: More; Effectiveness compared to the MAL1-271 positive control [1]: more effective

Q: With `O=C(O)CCCN1C=C(C(=O)OCc2ccc(Cl)cc2Cl)C(c2ccc(Cl)cc2Cl)NS1(=O)=O` (stereo not drawn) [Compound 959_30] as the compound, how does the “Effectiveness compared to MAL1-271 (Less/Similar/More)” value [1] read?
A: Similar

Q: `O=C(CCCN1C=C(C(=O)OCc2ccccc2)C(c2ccc(Cl)cc2Cl)NS1(=O)=O)OCCN1CCOCC1` (stereo not drawn) [Compound 959_74, Benzyl 3-(2,4-dichlorophenyl)-6-(4-(2-morpholinoethoxy)-4-oxobutyl)-3,6-dihydro-2H-1,2,6-thiadiazine-4-carboxylate 1,1-dioxide] was tested. Which “Effectiveness compared to MAL1-271 (Less/Similar/More)” value [1] did it give?
A: Similar

Q: Which inhibition at 0.001 µM (HDAC 6) does the source give for `O=C(CCCCCCC(=O)Nc1ccccc1)NO` [SAHA, Vorinostat] here?
A: 6%

Q: What about the inhibition at 0.005 µM (HDAC 6) of the same compound?
A: 25%

Q: And the inhibition at 0.01 µM (HDAC 6)?
A: 47%

Q: And the inhibition at 0.5 µM (HDAC 6)?
A: 94%

Q: What about the inhibition at 0.05 µM (HDAC 8) of the same compound?
A: 54%

Q: And the inhibition at 0.2 µM (HDAC 8)?
A: 67%

Q: And the inhibition at 1 µM (HDAC 8)?
A: 70%

Q: What about the inhibition at 2 µM (HDAC 8) of the same compound?
A: 86%

Q: What about the inhibition at 5 µM (HDAC 8) of the same compound?
A: 96%

Q: Which results are given for `CC(/C=C/C(=O)NO)=C\[C@@H](C)C(=O)c1ccc(N(C)C)cc1` [TSA, Trichostatin A]?
A: Percent Inhibition (HDAC 1-3; HDAC 1-3, standard at 0.0025 uM): NIA; Percent Inhibition (HDAC 1-3; HDAC 1-3, standard at 0.005 uM): NIA; Percent Inhibition (HDAC 1-3; HDAC 1-3, standard at 0.05 uM): 33%; Percent Inhibition (HDAC 1-3; HDAC 1-3, standard at 0.1 uM): 49%; Percent Inhibition (HDAC 1-3; HDAC 1-3, standard at 1 uM): 68%
